Results from the supplement of paper PMC6580486.
Structures can show the parent of a compound that is named as a salt.

Assays:
ESX = test system: ESX
Description: (§1)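 60-agent targeted drug screens (Drug Screen V3 on epithelioid sarcoma cultures PCB490-3/4/5, PCB495, EPS cell lines ESX, VA-ES-BJ, FU-EPS-1 and SkMc myoblasts; PPTI screen v2.1 on human UPS PCB197 and canine UPS S1-12). 384-well plates, 72 h, CellTiter-Glo viability; IC50 by Hill curve fit. 10000 nM = no IC50 achieved (top reported value).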

FU-EPS-1 = test system: FU-EPS-1
Description: as §1

PCB-490-3 = test system: PCB-490-3 (human epithelioid sarcoma primary culture)
Description: as §1

PCB-490-4 = test system: PCB-490-4 (human epithelioid sarcoma primary culture)
Description: as §1

PCB-490-5 = test system: PCB-490-5 (human epithelioid sarcoma primary culture)
Description: as §1

PCB-495 = test system: PCB-495 (human epithelioid sarcoma primary culture)
Description: as §1

SkMc = test system: SkMc
Description: as §1

VA-ES-BJ = test system: VA-ES-BJ
Description: as §1

pcb-00197 = test system: pcb-00197 (human undifferentiated pleomorphic sarcoma culture)
Description: as §1

s1-12 = test system: s1-12 (canine undifferentiated pleomorphic sarcoma culture)
Description: as §1

Row | SMILES | IC50 cell viability (ESX) [µM] | IC50 cell viability (FU-EPS-1) [µM] | IC50 cell viability (PCB-490-3) [µM] | IC50 cell viability (PCB-490-4) [µM] | IC50 cell viability (PCB-490-5) [µM] | IC50 cell viability (PCB-495) [µM] | IC50 cell viability (SkMc) [µM] | IC50 cell viability (VA-ES-BJ) [µM] | IC50 cell viability (U23674) [µM] | IC50 cell viability (pcb-00197) [µM] | IC50 cell viability (s1-12) [µM]
1 | CN(C)C(=N)NC(=N)N [Metformin HCL] | > 10 | > 10 | > 10 | > 10 | > 10 | > 10 | > 10 | > 10 | – | – | –
2 | CN1CCC(CNc2ccc3ncc(-c4cccc(OC(F)(F)F)c4)n3n2)CC1 [SGI-1776] | 0.15 | 1.7 | 4.5 | 2.03 | 1.85 | 7.51 | 2.84 | 4.81 | – | – | –
3 | COc1cccc(OCCCN)c1-c1cc(Nc2cnc(C#N)cn2)n[nH]1 | 0.23 | > 10 | > 10 | > 10 | > 10 | 3.17 | 1.29 | 0.69 | – | – | –
4 | Cc1[nH]c2ccccc2c1CCNCc1ccc(/C=C/C(=O)NO)cc1 [Panobinostat] | 0.12 | 0.15 | 0.53 | 0.17 | 0.11 | 0.23 | 0.18 | 0.02 | – | – | –
5 | NC(=O)c1ccc(-c2nc(-c3ccccn3)c(-c3ccc4c(c3)OCO4)[nH]2)cc1 | – | – | – | – | – | – | – | – | > 10 | > 10 | > 10
6 | Cc1cc(Nc2cc(N3CCN(C)CC3)nc(Sc3ccc(NC(=O)C4CC4)cc3)n2)n[nH]1 [Tozasertib] | > 10 | > 10 | > 10 | 3.33 | > 10 | > 10 | 2.62 | > 10 | – | – | –
7 | Cc1ccc(S(=O)(=O)/C=C/C#N)cc1 [BAY-11-7082] | > 10 | > 10 | > 10 | 1.93 | 0.77 | > 10 | > 10 | 0.49 | – | – | –
8 | CC1(C)CCC(c2ccc(Cl)cc2)=C(CN2CCN(c3ccc(C(=O)NS(=O)(=O)c4ccc(N[C@H](CCN5CCOCC5)CSc5ccccc5)c(S(=O)(=O)C(F)(F)F)c4)cc3)CC2)C1 [ABT-263] | > 10 | > 10 | > 10 | > 10 | > 10 | > 10 | > 10 | > 10 | – | – | –
9 | CC(C)N(CCCNC(=O)Nc1ccc(C(C)(C)C)cc1)C[C@H]1O[C@@H](n2cc(Br)c3c(N)ncnc32)[C@H](O)[C@@H]1O [SGC0946] | 0.62 | 1.48 | > 10 | > 10 | > 10 | 0.6 | 0.1 | 0.49 | – | – | –
10 | CC[C@H](C)n1cc(C)c2c(C(=O)NCc3c(C)cc(C)[nH]c3=O)cc(-c3ccc(N4CCNCC4)nc3)cc21 [GSK126] | > 10 | > 10 | > 10 | > 10 | > 10 | > 10 | 0.44 | > 10 | – | – | –
11 | N#CC[C@H](C1CCCC1)n1cc(-c2ncnc3[nH]ccc23)cn1 [Ruxolitinib] | > 10 | > 10 | > 10 | > 10 | > 10 | > 10 | > 10 | > 10 | – | – | –
12 | CCCc1c(OCCCOc2cc(O)c(-c3ccc(F)cc3)cc2CC)cccc1Oc1ccccc1C(=O)O | > 10 | > 10 | > 10 | > 10 | > 10 | > 10 | > 10 | > 10 | – | – | –
13 | O=C1NC(=O)C(c2cnc3ccccn23)=C1c1cn2c3c(cc(F)cc13)CN(C(=O)N1CCCCC1)CC2 | 1.52 | > 10 | > 10 | > 10 | > 10 | > 10 | 0.2 | > 10 | – | – | –
14 | CN1CCc2c(c3ccccc3n2Cc2ccc(C(=O)NO)cc2)C1 [Tubastatin A] | > 10 | > 10 | > 10 | > 10 | > 10 | > 10 | > 10 | > 10 | – | – | –
15 | CC[C@@H]1C(=O)N(C)c2cnc(Nc3ccc(C(=O)N[C@H]4CC[C@H](N5CCN(CC6CC6)CC5)CC4)cc3OC)nc2N1C(C)C [Volasertib] | 6.23 | 0.35 | > 10 | > 10 | > 10 | 6.54 | > 10 | 1.09 | – | – | –
16 | Cc1nc(Nc2ncc(C(=O)Nc3c(C)cccc3Cl)s2)cc(N2CCN(CCO)CC2)n1 [Dasatinib] | > 10 | > 10 | 1.27 | 0.17 | 0.39 | > 10 | 0.05 | > 10 | – | – | –
17 | Nc1nc(Nc2ccc(S(N)(=O)=O)cc2)nn1C(=S)Nc1c(F)cccc1F [Cdk1/2 inhibitor III] | 0.2 | > 10 | 1.41 | 1.02 | 1.1 | 0.42 | 0.29 | 0.13 | – | – | –
18 | CO[C@H]1C[C@@H]2CC[C@@H](C)[C@@](O)(O2)C(=O)C(=O)N2CCCC[C@H]2C(=O)O[C@H]([C@H](C)C[C@@H]2CC[C@@H](O)[C@H](OC)C2)CC(=O)[C@H](C)/C=C(\C)[C@@H](O)[C@@H](OC)C(=O)[C@H](C)C[C@H](C)/C=C/C=C/C=C/1C [Sirolimus] | > 10 | > 10 | > 10 | > 10 | > 10 | > 10 | 0.29 | > 10 | – | – | –
19 | Cc1ccc(Nc2nccc(N(C)c3ccc4c(C)n(C)nc4c3)n2)cc1S(N)(=O)=O [Pazopanib] | > 10 | > 10 | > 10 | > 10 | > 10 | > 10 | > 10 | > 10 | – | – | –
